From article PMC10034409 (Frontiers in Pharmacology, 2023)
“Also recorded” adds a separate entry of the source.

Experiments:
BChE = target: T1, BChE (Homo sapiens, UniProt P06276); test: biochemical; assay type: biochemical; details: for Ki: mean ± SEM, mean of four values from Lineweaver-Burk plot, its secondary re-plots and Dixon plot
T1 construct: purchased Sigma Aldrich (Steinheim, Germany)
Protocol: (§1) The test compounds were prepared fresh immediately before each experiment. Test compounds were added to 150 µl […] phosphate buffer (pH 8.0), 200 µl methanol, and 20 µl of the test enzymes and were incubated at 25°C for 15 min. A sample with an equal amount of solvent (ethanol) in place of the test compounds served as a negative control. 10 μl of DTNB reagent was added to the samples, and the reaction was initiated by adding 10 μl acetylthiocholine (ATCh) or butyrylthiocholine (BTCh) for the estimation of AChE and BChE, respectively. All the experiments were conducted in triplicate. […] The rate of enzyme inhibition was calculated as the change in optical density per minute (OD/min).
(§2) The enzyme inhibition activities of serially diluted concentrations of test compounds were measured, and the IC50 values were calculated using EZ-Fit Enzyme Kinetics Program.
(§3) The dissociation constant (Ki) values, which signified the dissociation of the enzyme-inhibitor complex into free enzyme and inhibitor, were also determined. […] These velocities were obtained over a range of substrate concentrations between 0.1 and 0.4 mM for ATCh and 0.05 and 0.2 mM for BTCh. The assay conditions for measurement of the residual activities of all inhibitors were identical to the aforementioned spectrophotometric assay procedure, except that the fixed concentrations of inhibiting compounds were used in the assay medium. Assays were conducted in triplicate at each concentration of the inhibitor.
(§4) The inhibition patterns of tested coumarins were determined by the graphical views of Dixon plots, Lineweaver-Burk plots, and their secondary re-plots. […] The linear regression analysis values, correlation coefficient, slope, intercept, and standard errors were obtained using the same software. Two different methods were applied to monitor the effects of the test sample on both Michaelis constant (K m ) and maximum velocity (V max) values. […] The secondary re-plots of the Lineweaver-Burk were also constructed in two ways; firstly, the reciprocal of apparent V max (1/V maxapp ) values were determined at each intersection point for every inhibitor concentration line on the y-axis of the Lineweaver-Burk plot and then re-plotted against different concentrations of the respective inhibitor. […] The secondary re-plot of the Dixon plot was constructed as the slope of each line of substrate concentration in the original Dixon plot against the reciprocals of substrate concentrations.

AChE = target: T2, AChE (Homo sapiens, UniProt P22303); test: biochemical; assay type: biochemical; details: for IC50 / AChE IC50: mean ± SEM of 3 experiments; for Ki: mean ± SEM, mean of four values from Lineweaver-Burk plot, its secondary re-plots and Dixon plot
T2 construct: purchased Sigma Aldrich (Steinheim, Germany)
Protocol: as §1, §2, §3, §4

T1 sequence (P06276 29-602): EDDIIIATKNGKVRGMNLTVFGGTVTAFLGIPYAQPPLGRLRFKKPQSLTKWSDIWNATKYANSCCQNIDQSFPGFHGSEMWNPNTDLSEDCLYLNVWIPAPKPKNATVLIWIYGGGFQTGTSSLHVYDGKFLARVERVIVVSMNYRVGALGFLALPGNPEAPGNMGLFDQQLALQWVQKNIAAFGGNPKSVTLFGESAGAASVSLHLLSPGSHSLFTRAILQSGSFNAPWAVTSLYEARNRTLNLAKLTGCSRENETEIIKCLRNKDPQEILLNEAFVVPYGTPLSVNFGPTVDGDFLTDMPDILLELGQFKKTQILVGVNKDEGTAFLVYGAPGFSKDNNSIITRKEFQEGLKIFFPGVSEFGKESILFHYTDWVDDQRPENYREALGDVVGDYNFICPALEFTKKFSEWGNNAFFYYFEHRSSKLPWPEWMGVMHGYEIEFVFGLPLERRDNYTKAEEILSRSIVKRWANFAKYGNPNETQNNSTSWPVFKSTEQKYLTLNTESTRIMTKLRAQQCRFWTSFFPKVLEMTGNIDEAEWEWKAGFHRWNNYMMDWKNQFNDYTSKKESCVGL
T2 sequence (P22303 32-614): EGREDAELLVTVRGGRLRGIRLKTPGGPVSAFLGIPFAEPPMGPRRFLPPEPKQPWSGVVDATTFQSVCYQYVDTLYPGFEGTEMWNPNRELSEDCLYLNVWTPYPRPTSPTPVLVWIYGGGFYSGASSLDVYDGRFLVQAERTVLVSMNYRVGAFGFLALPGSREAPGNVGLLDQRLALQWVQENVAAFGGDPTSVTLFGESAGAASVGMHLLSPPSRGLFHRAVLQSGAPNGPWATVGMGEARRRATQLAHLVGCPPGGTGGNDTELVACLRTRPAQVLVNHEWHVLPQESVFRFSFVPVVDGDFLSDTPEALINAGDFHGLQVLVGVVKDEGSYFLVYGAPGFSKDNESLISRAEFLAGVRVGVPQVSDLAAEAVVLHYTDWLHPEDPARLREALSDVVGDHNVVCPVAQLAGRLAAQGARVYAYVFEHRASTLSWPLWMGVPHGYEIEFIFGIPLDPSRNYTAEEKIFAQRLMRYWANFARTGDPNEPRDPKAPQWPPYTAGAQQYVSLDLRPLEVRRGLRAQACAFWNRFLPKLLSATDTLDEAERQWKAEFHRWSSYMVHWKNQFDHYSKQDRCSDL

| Compound | Type of inhibition of BChE (in words) (BChE) | IC50 (BChE; mean ± SEM of 3 experiments) [µM] | Ki (BChE) [µM] | BChE Type of inhibition (BChE; table abbreviations) | Type of inhibition of AChE (in words) (AChE) | IC50 (AChE) [µM] | Ki (AChE) [µM] | AChE Type of inhibition (AChE; table abbreviations) | BChE IC50 (BChE; mean ± SEM of 3 experiments) | AChE IC50 (AChE) | AChE IC50 (AChE; listed as 2′-O-ethylmurrangatin (1)) |
| --- | --- | --- | --- | --- | --- | --- | --- | --- | --- | --- | --- |
| COc1ccc2ccc(=O)oc2c1C(O)C(=O)C(C)C (centres unmarked) [Murranganone (2), murranganone] | mixed-type inhibition | 74.3 ± 0.75 | 22 ± 0.44 | LM ^e | pure non-competitive inhibition | 79.1 ± 2.02 | 50 ± 0.58 | NC ^d |  |  |  |
| C=C(C)[C@@H](OCC)[C@@H](O)c1c(OC)ccc2ccc(=O)oc12 [2′-O-Ethylmurrangatin (1), 2′-O-ethylmurrangatin] |  | 843 ± 13 |  |  |  |  |  |  | very weak activity | No activity upto 1 mM | not active at 1 mM conc; also recorded: did not show any inhibition |
| COc1ccc2ccc(=O)oc2c1C(OC(=O)CC(C)C)C(=O)C(C)C (centres unmarked) [Paniculatin (3), paniculatin] | mixed-type inhibitor |  | 22 ± 0.6 |  | mixed-type inhibitor | 31.6 ± 0.03 | 43 ± 0.65 |  |  |  |  |
